{"source": "paper PMC4770715", "about": "“LIM kinase inhibitors disrupt mitotic microtubule organization and impair tumor cell proliferation” (Oncotarget, 2015)", "test_in_all_cases": "biochemical", "parameters_in_all_cases": "KINOMEscan active-site competition binding, percent of control (100 = no competition)", "conditions_in_all_cases": "competition binding, percent control", "key": {"PAK6": {"molecular_target": "PAK6 (Homo sapiens, UniProt Q9NQU5)", "sequence (Q9NQU5 whole entry)": "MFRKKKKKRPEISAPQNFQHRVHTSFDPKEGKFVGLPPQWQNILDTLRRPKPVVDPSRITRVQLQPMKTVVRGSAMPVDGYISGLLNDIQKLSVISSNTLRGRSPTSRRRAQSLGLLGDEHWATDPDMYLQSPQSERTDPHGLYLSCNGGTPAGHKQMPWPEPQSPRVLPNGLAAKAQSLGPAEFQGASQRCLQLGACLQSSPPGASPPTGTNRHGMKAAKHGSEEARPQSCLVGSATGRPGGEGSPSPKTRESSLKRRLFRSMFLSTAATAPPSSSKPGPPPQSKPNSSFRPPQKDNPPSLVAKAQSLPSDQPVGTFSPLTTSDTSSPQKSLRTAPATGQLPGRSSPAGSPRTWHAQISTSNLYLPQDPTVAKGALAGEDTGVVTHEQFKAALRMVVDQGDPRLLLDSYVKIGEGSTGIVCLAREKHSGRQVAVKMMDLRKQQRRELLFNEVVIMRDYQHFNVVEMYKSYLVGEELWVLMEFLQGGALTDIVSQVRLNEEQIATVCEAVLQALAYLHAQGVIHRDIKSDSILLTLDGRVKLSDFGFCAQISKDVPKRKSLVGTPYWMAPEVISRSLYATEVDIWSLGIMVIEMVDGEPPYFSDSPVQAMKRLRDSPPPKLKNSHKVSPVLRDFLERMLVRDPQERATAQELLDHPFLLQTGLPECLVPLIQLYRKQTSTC"}, "ZAK": {"molecular_target": "T1, ZAK (Homo sapiens, UniProt Q9NYL2)", "T1 construct": "gene MAP3K20"}, "FLT3(R834Q)": {"molecular_target": "FLT3(R834Q) (Homo sapiens, UniProt P36888, R834Q)"}, "PIP5K1C": {"molecular_target": "PIP5K1C (Homo sapiens, UniProt O60331)"}, "RET(V804L)": {"molecular_target": "RET(V804L) (Homo sapiens, UniProt P07949, V804L)"}, "MARK3": {"molecular_target": "MARK3 (Homo sapiens, UniProt P27448)"}, "EGFR(L858R)": {"molecular_target": "EGFR(L858R) (Homo sapiens, UniProt P00533, L858R)", "sequence (P00533 whole entry L858R)": "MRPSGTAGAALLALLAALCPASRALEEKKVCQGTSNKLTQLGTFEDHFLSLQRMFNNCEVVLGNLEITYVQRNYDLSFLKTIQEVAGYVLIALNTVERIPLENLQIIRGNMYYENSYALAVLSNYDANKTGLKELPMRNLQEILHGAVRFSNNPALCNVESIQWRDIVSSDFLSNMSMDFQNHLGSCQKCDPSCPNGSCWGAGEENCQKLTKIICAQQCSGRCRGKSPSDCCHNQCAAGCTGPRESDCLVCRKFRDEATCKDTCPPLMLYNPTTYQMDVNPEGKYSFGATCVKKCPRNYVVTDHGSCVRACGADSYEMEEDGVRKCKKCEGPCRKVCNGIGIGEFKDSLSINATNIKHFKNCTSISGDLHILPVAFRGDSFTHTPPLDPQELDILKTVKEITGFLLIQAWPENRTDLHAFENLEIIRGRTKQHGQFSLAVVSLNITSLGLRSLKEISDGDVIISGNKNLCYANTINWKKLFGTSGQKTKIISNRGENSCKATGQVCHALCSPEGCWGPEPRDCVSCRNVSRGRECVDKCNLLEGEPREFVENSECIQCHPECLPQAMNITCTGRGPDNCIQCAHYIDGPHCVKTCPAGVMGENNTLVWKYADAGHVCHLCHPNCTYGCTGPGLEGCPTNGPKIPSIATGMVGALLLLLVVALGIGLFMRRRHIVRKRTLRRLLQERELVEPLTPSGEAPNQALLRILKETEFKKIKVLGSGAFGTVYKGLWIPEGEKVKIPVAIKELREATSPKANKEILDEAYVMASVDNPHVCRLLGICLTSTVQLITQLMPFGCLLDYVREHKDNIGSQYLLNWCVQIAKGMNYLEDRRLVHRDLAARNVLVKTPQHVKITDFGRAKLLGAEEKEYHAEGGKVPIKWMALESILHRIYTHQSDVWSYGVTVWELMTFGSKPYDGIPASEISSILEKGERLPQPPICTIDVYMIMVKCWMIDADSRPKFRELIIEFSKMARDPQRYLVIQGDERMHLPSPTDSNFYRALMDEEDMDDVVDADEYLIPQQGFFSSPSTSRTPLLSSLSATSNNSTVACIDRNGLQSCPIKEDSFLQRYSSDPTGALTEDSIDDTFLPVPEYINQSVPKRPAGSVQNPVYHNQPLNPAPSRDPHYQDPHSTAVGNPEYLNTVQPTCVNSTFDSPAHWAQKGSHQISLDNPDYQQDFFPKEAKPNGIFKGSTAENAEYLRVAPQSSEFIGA"}, "TEC": {"molecular_target": "TEC (Homo sapiens, UniProt P42680)"}, "RIOK2": {"molecular_target": "RIOK2 (Homo sapiens, UniProt Q9BVS4)"}, "ERBB3": {"molecular_target": "ERBB3 (Homo sapiens, UniProt P21860)"}, "[1]": {"molecular_target": "T2, ABL1(T315I)-phosphorylated (Homo sapiens, UniProt P00519, T315I)", "T2 construct": "phosphorylated"}, "PRKD2": {"molecular_target": "PRKD2 (Homo sapiens, UniProt Q9BZL6)"}, "TAK1": {"molecular_target": "T3, TAK1 (Homo sapiens, UniProt O43318)", "T3 construct": "gene MAP3K7"}, "CSK": {"molecular_target": "CSK (Homo sapiens, UniProt P41240)", "sequence (P41240 whole entry)": "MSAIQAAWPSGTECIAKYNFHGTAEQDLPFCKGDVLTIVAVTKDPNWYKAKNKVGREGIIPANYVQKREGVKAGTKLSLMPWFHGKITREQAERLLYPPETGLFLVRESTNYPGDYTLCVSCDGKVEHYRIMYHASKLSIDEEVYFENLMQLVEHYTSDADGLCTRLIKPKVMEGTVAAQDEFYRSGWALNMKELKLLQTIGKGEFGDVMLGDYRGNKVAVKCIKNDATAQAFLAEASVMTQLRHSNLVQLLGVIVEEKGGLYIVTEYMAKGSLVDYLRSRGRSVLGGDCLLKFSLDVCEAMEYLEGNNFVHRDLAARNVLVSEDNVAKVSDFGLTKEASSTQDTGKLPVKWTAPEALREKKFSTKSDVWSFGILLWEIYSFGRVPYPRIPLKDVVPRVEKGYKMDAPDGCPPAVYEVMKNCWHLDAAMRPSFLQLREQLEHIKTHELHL"}, "VRK2": {"molecular_target": "VRK2 (Homo sapiens, UniProt Q86Y07)"}, "PIK3CA(C420R)": {"molecular_target": "PIK3CA(C420R) (Homo sapiens, UniProt P42336, C420R)"}, "DDR2": {"molecular_target": "DDR2 (Homo sapiens, UniProt Q16832)", "sequence (Q16832 whole entry)": "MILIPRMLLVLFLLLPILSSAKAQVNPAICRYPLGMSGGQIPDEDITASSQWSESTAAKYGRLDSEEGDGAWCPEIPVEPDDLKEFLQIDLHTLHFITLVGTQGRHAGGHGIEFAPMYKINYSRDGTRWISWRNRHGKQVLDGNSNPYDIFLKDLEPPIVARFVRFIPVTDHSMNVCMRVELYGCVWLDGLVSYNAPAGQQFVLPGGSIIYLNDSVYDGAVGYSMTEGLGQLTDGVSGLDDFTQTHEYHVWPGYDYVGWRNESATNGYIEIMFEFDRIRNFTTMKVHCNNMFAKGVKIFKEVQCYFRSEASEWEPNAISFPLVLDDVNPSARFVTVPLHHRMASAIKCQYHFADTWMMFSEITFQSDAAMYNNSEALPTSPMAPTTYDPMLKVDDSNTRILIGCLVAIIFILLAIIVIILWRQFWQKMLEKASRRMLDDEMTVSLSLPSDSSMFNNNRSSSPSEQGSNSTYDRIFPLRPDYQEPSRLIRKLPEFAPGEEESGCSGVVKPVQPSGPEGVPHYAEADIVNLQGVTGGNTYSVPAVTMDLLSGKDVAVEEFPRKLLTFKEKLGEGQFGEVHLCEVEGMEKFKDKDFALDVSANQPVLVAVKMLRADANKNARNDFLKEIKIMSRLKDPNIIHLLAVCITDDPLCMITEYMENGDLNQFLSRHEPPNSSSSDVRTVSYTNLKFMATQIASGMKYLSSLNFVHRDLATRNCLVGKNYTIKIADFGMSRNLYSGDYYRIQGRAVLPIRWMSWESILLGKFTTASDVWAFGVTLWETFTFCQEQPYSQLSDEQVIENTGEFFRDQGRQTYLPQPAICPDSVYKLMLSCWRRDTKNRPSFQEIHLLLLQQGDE"}, "TAOK3": {"molecular_target": "TAOK3 (Homo sapiens, UniProt Q9H2K8)", "sequence (Q9H2K8 whole entry)": "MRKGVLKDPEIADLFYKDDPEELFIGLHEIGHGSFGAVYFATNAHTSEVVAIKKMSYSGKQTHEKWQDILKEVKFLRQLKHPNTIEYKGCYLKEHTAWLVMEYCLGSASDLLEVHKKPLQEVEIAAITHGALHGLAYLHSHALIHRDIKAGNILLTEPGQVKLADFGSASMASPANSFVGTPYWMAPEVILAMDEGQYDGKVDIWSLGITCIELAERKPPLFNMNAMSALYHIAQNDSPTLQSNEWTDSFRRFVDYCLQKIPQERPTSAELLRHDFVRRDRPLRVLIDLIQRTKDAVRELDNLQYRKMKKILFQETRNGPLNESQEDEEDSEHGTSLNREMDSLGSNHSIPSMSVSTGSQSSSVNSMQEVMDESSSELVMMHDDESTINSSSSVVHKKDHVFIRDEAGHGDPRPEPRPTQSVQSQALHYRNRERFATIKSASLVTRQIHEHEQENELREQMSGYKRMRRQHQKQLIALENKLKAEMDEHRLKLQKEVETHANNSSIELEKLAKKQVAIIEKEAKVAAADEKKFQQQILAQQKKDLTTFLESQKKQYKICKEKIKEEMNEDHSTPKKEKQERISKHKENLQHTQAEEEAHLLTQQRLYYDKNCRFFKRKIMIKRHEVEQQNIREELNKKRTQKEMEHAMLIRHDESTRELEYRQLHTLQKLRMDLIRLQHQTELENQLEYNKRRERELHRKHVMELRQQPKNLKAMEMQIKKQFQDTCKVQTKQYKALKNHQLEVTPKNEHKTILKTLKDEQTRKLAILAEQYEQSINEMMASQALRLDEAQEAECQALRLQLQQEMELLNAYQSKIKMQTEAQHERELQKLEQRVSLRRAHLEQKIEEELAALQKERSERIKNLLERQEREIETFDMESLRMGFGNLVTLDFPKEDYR"}, "CDK3": {"molecular_target": "CDK3 (Homo sapiens, UniProt Q00526)", "sequence (Q00526 whole entry)": "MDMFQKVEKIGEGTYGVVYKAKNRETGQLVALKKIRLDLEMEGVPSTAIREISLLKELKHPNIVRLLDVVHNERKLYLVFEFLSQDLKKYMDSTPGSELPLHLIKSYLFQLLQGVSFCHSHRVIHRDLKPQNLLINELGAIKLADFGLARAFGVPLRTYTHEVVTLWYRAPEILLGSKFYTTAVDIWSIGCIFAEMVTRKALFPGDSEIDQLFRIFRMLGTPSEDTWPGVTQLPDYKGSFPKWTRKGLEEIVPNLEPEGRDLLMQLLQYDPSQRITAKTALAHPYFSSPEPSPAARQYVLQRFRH"}, "FGFR3(G697C)": {"molecular_target": "FGFR3(G697C) (Homo sapiens, UniProt P22607, G697C)"}, "STK16": {"molecular_target": "STK16 (Homo sapiens, UniProt O75716)", "sequence (O75716 whole entry)": "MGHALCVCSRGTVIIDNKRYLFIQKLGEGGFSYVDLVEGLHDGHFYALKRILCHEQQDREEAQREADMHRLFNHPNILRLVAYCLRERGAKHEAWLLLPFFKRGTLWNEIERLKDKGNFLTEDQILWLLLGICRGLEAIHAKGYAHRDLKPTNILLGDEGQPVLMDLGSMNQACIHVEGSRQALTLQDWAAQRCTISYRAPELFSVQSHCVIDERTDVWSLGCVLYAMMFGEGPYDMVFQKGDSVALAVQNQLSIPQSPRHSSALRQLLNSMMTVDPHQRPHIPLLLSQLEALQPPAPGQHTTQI"}, "PKN2": {"molecular_target": "PKN2 (Homo sapiens, UniProt Q16513)"}, "FGR": {"molecular_target": "FGR (Homo sapiens, UniProt P09769)"}}}
{"smiles": "COc1ccc(-c2cnccc2-c2cnc(NC(=O)C(C)C)s2)c(C(F)(F)F)c1", "note": "[CRT0105446, N-{5-[3-(4-Methoxy-2-trifluoromethyl-phenyl)-pyridin-4-yl]-hiazol-2-yl}-isobutyramide]", "values": [{"measurement": "remaining binding at 10 µM", "setting": "PAK6", "result": 93, "unit": "%"}, {"measurement": "remaining binding at 10 µM", "setting": "ZAK", "result": 100, "unit": "%"}, {"measurement": "remaining binding at 10 µM", "setting": "FLT3(R834Q)", "result": 88, "unit": "%"}, {"measurement": "remaining binding at 10 µM", "setting": "PIP5K1C", "result": 60, "unit": "%"}, {"measurement": "remaining binding at 10 µM", "setting": "RET(V804L)", "result": 99, "unit": "%"}, {"measurement": "remaining binding at 10 µM", "setting": "MARK3", "result": 78, "unit": "%"}, {"measurement": "remaining binding at 10 µM", "setting": "EGFR(L858R)", "result": 76, "unit": "%"}, {"measurement": "remaining binding at 10 µM", "setting": "TEC", "result": 100, "unit": "%"}, {"measurement": "remaining binding at 10 µM", "setting": "RIOK2", "result": 16, "unit": "%"}, {"measurement": "remaining binding at 10 µM", "setting": "ERBB3", "result": 100, "unit": "%"}, {"measurement": "remaining binding at 10 µM", "setting": "[1]", "result": 99, "unit": "%"}, {"measurement": "remaining binding at 10 µM", "setting": "PRKD2", "result": 74, "unit": "%"}, {"measurement": "remaining binding at 10 µM", "setting": "TAK1", "result": 79, "unit": "%"}, {"measurement": "remaining binding at 10 µM", "setting": "CSK", "result": 91, "unit": "%"}, {"measurement": "remaining binding at 10 µM", "setting": "VRK2", "result": 95, "unit": "%"}, {"measurement": "remaining binding at 10 µM", "setting": "PIK3CA(C420R)", "result": 100, "unit": "%"}, {"measurement": "remaining binding at 10 µM", "setting": "DDR2", "result": 0.4, "unit": "%"}, {"measurement": "remaining binding at 10 µM", "setting": "TAOK3", "result": 96, "unit": "%"}, {"measurement": "remaining binding at 10 µM", "setting": "CDK3", "result": 24, "unit": "%"}, {"measurement": "remaining binding at 10 µM", "setting": "FGFR3(G697C)", "result": 93, "unit": "%"}, {"measurement": "remaining binding at 10 µM", "setting": "STK16", "result": 5, "unit": "%"}, {"measurement": "remaining binding at 10 µM", "setting": "PKN2", "result": 96, "unit": "%"}, {"measurement": "remaining binding at 10 µM", "setting": "FGR", "result": 93, "unit": "%"}]}
{"smiles": "Cc1ccc(-c2cnccc2-c2cnc(Nc3ccc(O)cc3)s2)c(Cl)c1", "note": "[CRT0105950, 4-{5-[3-(2-Chloro-4-methyl-phenyl)-pyridin-4-yl]-thiazol-2-ylamino}-phenol]", "values": [{"measurement": "remaining binding at 10 µM", "setting": "PAK6", "result": 38, "unit": "%"}, {"measurement": "remaining binding at 10 µM", "setting": "ZAK", "result": 9, "unit": "%"}, {"measurement": "remaining binding at 10 µM", "setting": "FLT3(R834Q)", "result": 18, "unit": "%"}, {"measurement": "remaining binding at 10 µM", "setting": "PIP5K1C", "result": 100, "unit": "%"}, {"measurement": "remaining binding at 10 µM", "setting": "RET(V804L)", "result": 5.8, "unit": "%"}, {"measurement": "remaining binding at 10 µM", "setting": "MARK3", "result": 51, "unit": "%"}, {"measurement": "remaining binding at 10 µM", "setting": "EGFR(L858R)", "result": 69, "unit": "%"}, {"measurement": "remaining binding at 10 µM", "setting": "TEC", "result": 100, "unit": "%"}, {"measurement": "remaining binding at 10 µM", "setting": "RIOK2", "result": 2, "unit": "%"}, {"measurement": "remaining binding at 10 µM", "setting": "ERBB3", "result": 100, "unit": "%"}, {"measurement": "remaining binding at 10 µM", "setting": "[1]", "result": 79, "unit": "%"}, {"measurement": "remaining binding at 10 µM", "setting": "PRKD2", "result": 26, "unit": "%"}, {"measurement": "remaining binding at 10 µM", "setting": "TAK1", "result": 33, "unit": "%"}, {"measurement": "remaining binding at 10 µM", "setting": "CSK", "result": 71, "unit": "%"}, {"measurement": "remaining binding at 10 µM", "setting": "VRK2", "result": 72, "unit": "%"}, {"measurement": "remaining binding at 10 µM", "setting": "PIK3CA(C420R)", "result": 88, "unit": "%"}, {"measurement": "remaining binding at 10 µM", "setting": "DDR2", "result": 12, "unit": "%"}, {"measurement": "remaining binding at 10 µM", "setting": "TAOK3", "result": 28, "unit": "%"}, {"measurement": "remaining binding at 10 µM", "setting": "CDK3", "result": 7.7, "unit": "%"}, {"measurement": "remaining binding at 10 µM", "setting": "FGFR3(G697C)", "result": 7.2, "unit": "%"}, {"measurement": "remaining binding at 10 µM", "setting": "STK16", "result": 8.7, "unit": "%"}, {"measurement": "remaining binding at 10 µM", "setting": "PKN2", "result": 26, "unit": "%"}, {"measurement": "remaining binding at 10 µM", "setting": "FGR", "result": 32, "unit": "%"}]}
